Experimental findings from ChEMBL document CHEMBL1130857, “Synthesis and biological activity of lactones en route to Altohyrtin A” (1998) are described below.

≈ marks a conversion by molar mass, not a printed value. Calls of active or inactive are those of the source. No cut-off for these calls is given here.

For assay [1], the species on record is Homo sapiens. Kind of assay: Antitumor activity against Pharynx-sq FADU cells was evaluated; No biological activity. The format is functional.
The next assay has as its system SW 1736. Nature of the assay: Antitumor activity against Thyroid ca SW 1736 cells was evaluated; No biological activity. Format: functional, cell-based. The note with it: Homo sapiens.
The next assay has as its system NCI-H460. Kind of assay: Antitumor activity against Lung-NSC NCI-H460 cells was evaluated; No biological activity. The note with it: Homo sapiens. The format is functional, cell-based.
The test system of the next assay is KAT-4. Nature of the assay: Antitumor activity against Thyroid ca KAT-4 cells was evaluated; No biological activity. The note with it: Homo sapiens. The format is functional, cell-based.
Another assay deals with BXPC-3. Nature of the assay: Antitumor activity against Pancreas-a BXPC-3 cells was evaluated; No biological activity. The format is functional, cell-based. The note with it: Homo sapiens.
In another assay the test system is DU-145. Kind of assay: Antitumor activity against Prostate DU-145 cells was evaluated; No biological activity. The format is functional, cell-based. The note with it: Homo sapiens.
Assay [2] in a line: Antitumor activity was evaluated by the growth inhibition of Thyroid ca SW 1736 cells; Active. The format is functional. The note with it: Homo sapiens.
Assay [3] in a line: Antitumor activity was evaluated by the growth inhibition of Prostate DU-145 cells; Active. Format: functional. The note with it: Homo sapiens.
A short description of assay [4]: Antitumor activity was evaluated by the total growth inhibition of Lung-NSC NCI-H460 cells; Active. The format is functional. The note with it: Homo sapiens, NCI-H460, read-out: TGI50.
A short description of assay [5]: Antitumor activity was evaluated by the lethal concentration of Pancreas-a BXPC-3 cells; Active. The format is functional. The note with it: Homo sapiens, read-out: LC50 (the source's name).
A short description of assay [6]: Antitumor activity was evaluated by the lethal concentration of Prostate DU-145 cells; Active. Format: functional. The note with it: Homo sapiens, read-out: LC50 (the source's name).
Assay [7] is described as follows: Antitumor activity was evaluated by the lethal concentration of Lung-NSC NCI-H460 cells; Active. The format is functional. The note with it: Homo sapiens, read-out: LC50 (the source's name).
A short description of assay [8]: Antitumor activity was evaluated by the growth inhibition of Lung-NSC NCI-H460 cells; Active. Format: functional. The note with it: Homo sapiens.
Assay [9] is filed under the species Homo sapiens. Nature of the assay: Antitumor activity was evaluated by the lethal concentration of Pharynx-sq FADU cells; Active. The note with it: read-out: LC50 (the source's name). Format: functional.
A short description of assay [10]: Antitumor activity was evaluated by the total growth inhibition of Prostate DU-145 cells; Active. The note with it: Homo sapiens, DU-145, read-out: TGI50. Format: functional.
Assay [11] in a line: Antitumor activity was evaluated by the lethal concentration of Thyroid ca KAT-4 cells; Active. Format: functional. The note with it: Homo sapiens, read-out: LC50 (the source's name).
Assay [12] is described as follows: Antitumor activity was evaluated by the total growth inhibition of Thyroid ca SW 1736 cells; Active. The format is functional. The note with it: Homo sapiens, SW-1736, read-out: TGI50.
For assay [13], the species on record is Homo sapiens. Nature of the assay: Antitumor activity was evaluated by the total growth inhibition of Pharynx-sq FADU cells; Active. The format is functional. The note with it: read-out: TGI50.
Assay [14] can be described thus: Antitumor activity was evaluated by the total growth inhibition of Pancreas-a BXPC-3 cells; Active. The note with it: Homo sapiens, BXPC-3, read-out: TGI50. Format: functional.
The nature of assay [15]: Antitumor activity was evaluated by the lethal concentration of Thyroid ca SW 1736 cells; Active. The format is functional. The note with it: Homo sapiens, read-out: LC50 (the source's name).
For assay [16], the species on record is Homo sapiens. Nature of the assay: Antitumor activity was evaluated by the growth inhibition of Pharynx-sq FADU cells; Active. Format: functional.
A short description of assay [17]: Antitumor activity was evaluated by the growth inhibition of Thyroid ca KAT-4 cells; Active. The format is functional. The note with it: Homo sapiens.
Assay [18] can be described thus: Antitumor activity was evaluated by the total growth inhibition of Thyroid ca KAT-4 cells; Active. The note with it: Homo sapiens, KAT-4, read-out: TGI50. The format is functional.
Assay [19] is described as follows: Antitumor activity was evaluated by the growth inhibition of Pancreas-a BXPC-3 cells; Active. Format: functional. The note with it: Homo sapiens.

Take `C[C@H]1C(COCc2ccccc2)OC(=O)[C@@H](O)[C@@H]1O` (some centres undefined): the outcome in the assay filed under Homo sapiens [1], with SW 1736, in the assay with NCI-H460, in the assay on KAT-4, in the assay with BXPC-3 and with DU-145 was inactive.
As to `C[C@@H]1[C@@H](O)[C@H](O)C(=O)O[C@H]1[C@H]1COC(C)(C)O1`, the GI50 is 8.5 µg/mL (≈ 34.5 µM) in [2]; 2.7 µg/mL (≈ 11 µM) in assay [3]; over 10 µg/mL in assay [4]; 2.9 µg/mL (≈ 11.8 µM) in assay [8]; over 10 µg/mL in [10]; over 10 µg/mL in assay [12]. Moreover, the GI50 in the assay listed under Homo sapiens [13] was over 10 µg/mL; in assay [14], over 10 µg/mL; in the assay filed under Homo sapiens [16], 3.7 µg/mL (≈ 15 µM); in assay [17], over 10 µg/mL; in [18] it was over 10 µg/mL; in assay [19], over 10 µg/mL. Besides, the CC50 (in [5]; in [6]; in assay [7]; in the assay filed under Homo sapiens [9]; in [11]; in assay [15]) was over 10000 µg/mL in each case.
